Values quoted from earlier work, collected in patent publication US9877959B2, “Pharmaceutical composition containing palonosetron” (SAMYANG BIOPHARMACEUTICALS CORPORATION, priority 2013, dated 2018).

How the values were obtained:
5-HT3 receptor = molecular target: T1, 5-HT3 receptor (Homo sapiens, UniProt P46098); conditions: relative to first-generation 5-HT3 receptor antagonists
T1 sequence (P46098 24-478): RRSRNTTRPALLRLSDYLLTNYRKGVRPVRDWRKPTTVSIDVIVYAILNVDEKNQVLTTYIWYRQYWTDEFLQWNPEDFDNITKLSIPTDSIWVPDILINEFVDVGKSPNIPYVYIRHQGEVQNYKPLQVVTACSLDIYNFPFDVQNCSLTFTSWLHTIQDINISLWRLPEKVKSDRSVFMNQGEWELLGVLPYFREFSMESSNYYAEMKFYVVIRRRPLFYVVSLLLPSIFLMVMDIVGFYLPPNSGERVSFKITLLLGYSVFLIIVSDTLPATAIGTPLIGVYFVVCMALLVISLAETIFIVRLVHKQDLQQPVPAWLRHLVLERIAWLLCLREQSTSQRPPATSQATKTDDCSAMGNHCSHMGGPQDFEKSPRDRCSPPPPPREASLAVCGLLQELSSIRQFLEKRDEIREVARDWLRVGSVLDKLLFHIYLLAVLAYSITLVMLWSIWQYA

[1] = in vivo

inhibitory effect on delayed vomiting, higher than that of other first-generation 5-HT3 receptor antagonists (5-HT3 receptor): 10 times
half-life [1]: ≥ 40 h
SMILES: O=C1c2cccc3c2C(CCC3)CN1C1CN2CCC1CC2 (stereo in doubt) [palonosetron, (3aS)-2-[(3S)-1-azabicyclo[2.2.2]oct-3-yl]-2,3,3a,4,5,6-hexahydro-1H-benz[de]isoquinolin-1-one]
